Laboratory results from publication PMC2376334, “Penetration of capecitabine and its metabolites into malignant and healthy tissues of patients with advanced breast cancer” (British Journal of Cancer, 2003).

Tests used:
[1] = Plasma pharmacokinetics of free drug after oral capecitabine in breast cancer patients; type: in vivo, human; settings: for Cmax / Tmax / half-life / AUC(0-t) / concentration at 1 day: human, plasma; for AUC(0-t): read-out: AUC0−5 h; for concentration at 1 day: one patient, day 1, slow absorption kinetics, read-out: plasma concentrations; for plasma concentrations: same patient, end of the first cycle (days 12–14)
Method: In parallel, a plastic cannula was inserted into an antecubital vein to monitor blood concentrations of the study drug at 30-min intervals. A total of 10 capecitabine-naive patients were studied after the first morning dose of day 1. Three of them were monitored once again between days 12 and 14 of cycle 1.
(§1) After thawing, 100 μl plasma were centrifuged through Centrisart-C4 filter units with a nominal molecular weight cutoff=10 000 (Sartorius, Germany) for 30 min at 37°C to separate free drug from protein-bound drug. […] Capecitabine, DFCR, DFUR (supplied by Roche, Basel, Switzerland), and FU (Sigma, St Louis, MO, USA) were evaluated in 200 mM tetraborate buffer (pH=9.5) monitoring the absorbance at three different wavelengths (capecitabine: 297 nm, DFCR: 282 nm, DFUR and FU: 268 nm). […] The intra-assay coefficient of variation for this method ranged from 3.4 to 6.9% with an interassay coefficient of variation ranging from 6.7 to 10.4%.

[2] = Microdialysis pharmacokinetics in the interstitium of subcutaneous connective tissue; settings: human; for AUC(0-t) / Cmax / Tmax / half-life: po, 1250 mg
Text: (§2) Patients were in a supine position throughout the study period. Commercially available microdialysis probes (CMA 10®, CMA, Stockholm, Sweden) were inserted into a suitable cutaneous metastasis. A second microdialysis probe was inserted horizontally into the subcutaneous connective tissue of one thigh. The surface of the disinfected skin was punctured according to a previously described procedure ([Müller et al, 1995]). The position of the probes in the metastasis was established by ultrasound scanning. Subsequently, the microdialysis system was connected and perfused with Ringer's solution at a flow rate of 1.5 μl min^−1 by a microinfusion-pump (Precidor®; Infors-AG, Basel, Switzerland). After a 30 min baseline sampling period, probe calibration for capecitabine and FU was performed for a period of 30 min according to a retrodialysis procedure ([Stahle et al, 1991]). After a wash-out period of 30 min, the study drug was administered in the scheduled dose. Sampling was continued at 30-min intervals up to 300 min.
(§3) Sample collection and analysis of microdialysates and blood samples by capillary electrophoresis were performed according to a validated method with minor modifications ([Mader et al, 1998]). After thawing, 100 μl plasma were centrifuged through Centrisart-C4 filter units with a nominal molecular weight cutoff=10 000 (Sartorius, Germany) for 30 min at 37°C to separate free drug from protein-bound drug. […] Capecitabine, DFCR, DFUR (supplied by Roche, Basel, Switzerland), and FU (Sigma, St Louis, MO, USA) were evaluated in 200 mM tetraborate buffer (pH=9.5) monitoring the absorbance at three different wavelengths (capecitabine: 297 nm, DFCR: 282 nm, DFUR and FU: 268 nm).
(§4) To obtain absolute interstitial concentrations from dialysate concentrations, microdialysis probes were calibrated for in vivo recovery rates according to the retrodialysis method ([Müller et al, 1995],[1997]). The principle of this method relies on the assumption that the diffusion process is quantitatively equal in both directions across the semipermeable membrane. Therefore, the study drug is added to the perfusate and the disappearance rate through the membrane is taken as the in vivo recovery. The in vivo recovery value is calculated as: […]
(§5) Absolute interstitial fluid concentrations of free drug were calculated from dialysate concentrations by the following equation: […]
(§6) The following pharmacokinetic parameters were determined: AUC calculated using the trapezoidal rule, maximum concentration (cmax), time to maximum concentration (tmax), and elimination half-life (t1/2). For statistical calculations, pharmacokinetic parameters derived from different compartments were compared using the paired Wilcoxon test.

[3] = Microdialysis pharmacokinetics in the interstitium of a cutaneous metastasis (tumour)
Text: as §2, §3, §4, §5, §6

[4] = In vitro plasma protein binding (ultrafiltration); type: in vitro ADME
Method: as §1
The plasma protein binding of DFCR, DFUR, and FU was <4% up to 100 μg substance (ml plasma)^−1. In contrast, the plasma protein binding of capecitabine was determined to be 60% by in vitro binding experiments (data not shown).

[5] = design: method as in Mackean et al, 1998; settings: most slowly eliminating compound; ref Mackean et al, 1998; cited from earlier work
[6] = after capecitabine, cited from earlier work
[7] = po, free drug, median, n=10, 1250 mg capecitabine m^−2 orally, day 1, read-out: cmax
[8] = po, median, n=10, 1250 mg capecitabine m^−2 orally
[9] = po, median, n=10, 1250 mg capecitabine m^−2 orally, read-out: tmax
[10] = oral, 1250 mg m^−2, Ratio of AUC0−5 h s.c. Tissue/plasma, median of single-patient ratios, n=10
[11] = median of single-patient ratios, n=10
[12] = up to 100 μg substance (ml plasma)^−1
[13] = tissue biopsies, colorectal tumours, ref Schüller et al, 2000

SMILES | Cmax [1, 7] [ng/mL] | half-life [1, 8] [min] | AUC(0-t) [1, 8] [ng·h/mL] | Tmax [1, 9] [h] | Kp [2, 10] | AUC(0-t) [2] [ng·h/mL] | Cmax [2] [ng/mL] | Tmax [2] [h] | half-life [2] [min] | Kp ([3]; human, oral, 1250 mg m^−2) | Cmax ([3]; human, po, 1250 mg) [ng/mL] | Tmax ([3]; human, po, 1250 mg) [h] | half-life ([3]; human, po, 1250 mg) [min] | Ratio of AUC0−5 h Tumour/s.c. tissue [3, 11] | concentration at 1 day ([1]; oral, 1250 mg m^−2) [ng/mL] | plasma concentrations [1] | fraction unbound [4, 12] | also measured
CCCCCOC(=O)Nc1nc(=O)n([C@@H]2O[C@H](C)[C@@H](O)[C@H]2O)cc1F [Capecitabine] | 2340 | 30 | 2360 | 1.75 | 1.31 | 3160 | 2700 | 2.25 | 35.4 | 1.76 | 2660 | 2.5 | 30 | 1.11 | – | – | – | Cmax ([1]; oral, 1250 mg m^−2, capecitabine-naive patients, range between patients, read-out: range of cmax): 640 to 15400 ng/mL; Tmax ([1]; oral, 1250 mg m^−2, capecitabine-naive patients, range between patients, read-out: range of tmax): 1 to 3 h; Kp ([2]; oral, 1250 mg m^−2, ratio AUCconnective tissue/AUCplasma, subgroup of four patients): > 2; fraction unbound ([4]; plasma, in vitro binding experiments (data not shown)): 0.4
C[C@H]1O[C@@H](n2cc(F)c(N)nc2=O)[C@H](O)[C@@H]1O [DFCR, 5′-deoxy-5-fluorocytidine] | 6530 | 51.6 | 11300 | 1.75 | 0.67 | 8400 | 4370 | 2.5 | 45.6 | 0.67 | 4220 | 2.5 | 52.2 | 1.12 | ≤ 4000 | about 10 μg ml^−1 | > 0.96 | plasma half-life [5]: 1.22 h
C[C@H]1O[C@@H](n2cc(F)c(=O)[nH]c2=O)[C@H](O)[C@@H]1O [DFUR, 5′-deoxy-5-fluorouridine] | 3650 | 48 | 6420 | 2 | – | – | – | – | – | – | – | – | – | – | ≤ 4000 | about 10 μg ml^−1 | > 0.96 | Kp ([2]; in vivo, Ratio of AUC0−5 h s.c. Tissue/plasma): 0.44; AUC(0-t) ([2]; in vivo): 2750 ng·h/mL; Kp ([3]; human, in vivo): 0.53; Ratio of AUC0−5 h Tumour/s.c. tissue ([3]; human, in vivo): 1.20; AUC0−5 h ([3]; human, in vivo, po, 1250 mg): 3.35 μg ml^ 1 h
O=c1[nH]cc(F)c(=O)[nH]1 [FU, 5-fluorouracil, reference compound] | 250 | – | 290 | 2.5 | 1.53 | 360 | 330 | 2 | – | 0.66 | 260 | 3 | – | 0.66 | – | – | > 0.96 | FU levels in plasma ([1]; rarely exceeding, oral capecitabine regimen): ≤ 0.5 µg/mL; mean tumour/plasma ratio ([6]; patients with colorectal tumours, ref Schüller et al (2000)): 21; median ratio tumour/healthy tissue of FU concentration [6, 13]: 2.9; median tumour/plasma ratio of FU concentration [6, 13]: 16.6; detection in tumour interstitium ([3]; one patient, day 1): not observed
